# According to patent publication US20060020027A1, “Use of curcumanoids as histone acetyltransferases (HATs) inhibitors” (priority 2004, published 2006):
# How the values were obtained:
# [1] = test system: HIV-1 (H9/HTLV-IIIb NIH 1983 cells cocultured with SupT1 cells); assay: Syncytium inhibition assay; assay type: cell-based; conditions: 12 h
# Method: Syncytium inhibition assay: The cell lines SupT1 and H9/HTLV-IIIb NIH 1983 were obtained from The AIDS Research and Reference Reagent Program. H9/HTLV-IIIb NIH 1983 cells carrying a stably integrated provirus were cocultured with excess numbers of SupT1 cells at a ration of 1:200 or 1:400. A total of […] were seeded per well in a 24-well plate and cultured in RPMI medium supplemented with 10% fetal calf serum and antibiotics. […] All the wells received the same amount of DMSO including the control wells. Formation of syncytia was visible under light microscope within 12 hrs. The total number of syncytia in 10 representative wells was counted at different time points (12, 24 and 48 h) and data for 12 h time point are presented. Identical results were obtained at other time points. All the assays were performed in triplicate wells and the experiment was performed two times.
# (A), H9/HTLV-IIIb NIH 1983 carrying stable integrated virus were cocultured with excess numbers of SupT1 cells at 1:200 or 1:400 ratio. A total of 0.1×10^6 cells were seeded per well. […] Formation of syncytia is visible under light microscope within 12 hrs. The total number of syncytia in 10 representative wells was counted and presented. The data are representative of 2 independent experiments.
# p300 = p300 (Homo sapiens, UniProt Q09472); assay: Histone acetyltransferase (HAT) assay, filter binding and gel, with p300; assay type: biochemical; conditions: varying acetyl CoA or histone concentration; 25 and 30 μM curcumin
# From the text: The results were plotted using the Graph Pad Prism software.
# [2] = test system: transcription from DNA template; assay: In vitro transcription from DNA template; assay type: biochemical; conditions: even at 300 μM
# Method: (§1) In vitro Transcription Assay: Transcription assays were carried out as described elsewhere (9) with the necessary modifications. The reconstituted chromatin template (containing 30 ng DNA) or an equimolar amount of histone—free DNA was incubated with 50 ng of activator (Gal4-VP16) in a buffer containing 4 mM HEPES (pH 7.8), 20 mM KCl, 2 mM DTT, 0.2 mM PMSF, 10 mM sodium butyrate, 0.1 mg/ml bovine serum albumin, 2% glycerol. […] HeLa nuclear extract (5 μl, which contains 8 mg/ml protein) was added then to initiate the preinitiation complex formation. Transcription reaction was started by the addition of NTP-mix and α-[^32P] UTP after the preinitiation complex formation and incubated further for 40 min at 30° C. For loading control separate reaction was setup with ˜25 ng of supercoiled ML200 DNA, and the transcription assay was carried out as described above, without the addition of the activator (Gal4-VP16) and 2 μl of this reaction was added to each of the transcription reactions. […] Transcripts were analysed by 5% Urea-PAGE and quantification of transcription was done by phosphoimager (Fuji) analysis. […]
# (§2) (A), Schematic representation of the in vitro transcription protocol. […] The in vitro transcription reaction mixtures were analyzed on 5% urea-acrylamide gel and further processed by autoradiography.
# HeLa cells = assay: Apoptosis assay (Hoechst staining, nuclear fragmentation); assay type: cell-based; conditions: 24 hours exposure to 75-100 μM
# Method: Apoptosis assay: Curcumin-induced apoptosis was monitored by the extent of nuclear fragmentation. Nuclear fragmentation was visualized by Hoechst staining of apoptotic nuclei. The apoptotic cells were collected by centrifugation, washed with PBS and fixed in 4% paraformaldehyde for 20 minutes at room tempertature. Subsequently the cells were washed and resuspended in 20 μl PBS before depositing it on poly lysine-coated coverslips and were left to adhere on cover slips for 30 min at room temperature after which the cover slips were washed twice with PBS. The adhered cells were then incubated with 0.1% Triton X-100 for 5 min at room temperature and rinsed with PBS for three times. The coverslips were treated with Hoechst 33258 for 30 minutes at 37° C., rinsed with PBS and mounted them on slides with glycerol-PBS and processed as described previously (29).
# Arrows indicate apoptotic nuclear fragmentation
# [3] = target: T1, p300 (substrate HIV-Tat protein) (Homo sapiens, UniProt Q09472); assay: Acetylation of Tat protein by p300 (HAT assay); assay type: biochemical; conditions: […] and 50 μM curcumin
# T1 construct: made in house
# Method: (§3) Histone acetyltransferase Assay: HAT assays were performed as described previously (30). […] The reaction mixture was then blotted onto P-81 (Whatman) filter paper and radioactive counts were recorded on a Wallac 1409 liquid scintillation counter. The radiolabeled acetylated histones were visualized by resolving on 15% SDS-polyacrylamide gel and subjected to fluorography followed by autoradiography.
# (B), the percentage of acetylation was calculated in each of the cases by accounting for the corrections of acetylation in the case of Tat alone.
# [4] = test system: histone methyltransferase enzymes of HeLa nuclear extract; assay: Histone methyltransferase assay with HeLa nuclear extract; assay type: biochemical; conditions: 50 and 100 μM curcumin
# Method: (§4) Histone methyltransferase and deacetylase Assays: Histone methyltransferase assays were performed in a 30 μl reaction. […] After the initial incubation, 1 μl of 8.3 Ci/mmol ^3H—S— Adenosyl Methionine was added to the reaction mixtures and the incubation continued for 1 hour (in the case of nuclear extract) or for 15 minutes (in the case of G9a). The reaction products were TCA precipitated, resolved on 15% SDS-PAGE and subjected to fluorography followed by autoradiography.
# (§5) The reaction products were TCA precipitated, resolved on 15% SDS-PAGE and subjected to fluorography followed by autoradiography.
# CBP = CBP (Homo sapiens, UniProt Q92793); assay: Histone acetyltransferase (HAT) assay with CBP; assay type: biochemical; conditions: core histones
# Method: as §3
# PCAF = PCAF (Homo sapiens, UniProt Q92831); assay: Histone acetyltransferase (HAT) assay with PCAF; assay type: biochemical; conditions: 100 μM curcumin
# Method: as §3
# [5] = test system: acetylation of p53 in 293 T cells; assay: p53 acetylation in transfected cells (immunoprecipitation, western blotting); assay type: cell-based; conditions: 24 hours
# Method: 293 T cells were transfected with CMV-p53 and CMV-p300 using Lipofectamine 2000 reagent (Invitrogen) according to the manufacturer's instructions. […] The cells were harvested using RIPA buffer (150 mM NaCl, 50 mM Tris pH 7.4, 1% NP40, 0.1% Sodium deoxycholate, 1 mM EDTA, 0.5 μg/ml leupeptin, 0.5 μg/ml aprotinin and 0.5 μg/ml pepstatin) and the p53 protein was immunoprecipitated from the lysates using mouse monoclonal anti-p53 antibody, DO1 (oncogene). The immunocomplexes were bound on protein G-sepharose beads (Amersham Pharmacia) for 12 hours at 4° C., washed 3 times with RIPA buffer and subjected to SDS-PAGE on a 10% gel followed by western blotting using mouse monoclonal anti-p53 antibody, pAb421 or mouse monoclonal anti-acetylated lysine antibody.
# (B) HeLa cells were treated as indicated, for 24 hours, histones were extracted and separated on an 18% acid/urea/triton (AUT) PAGE. The protein bands were visualized by Coomassie brilliant blue staining. […] Asterisk (*) indicates hyperacetylation of histones in response to HDAC inhibition by TSA and sodium butyrate. […] (C). The acid-extracted histones were resolved over 12% SDS-PAGE and were analyzed by western blot using antibodies against acetylated histone H3 and H4. […] The p53 protein was immunoprecipitated from the cell lysates using p53 monoclonal antibody and acetylation status was analyzed by western blotting. […]
# [6] = test system: p300 HAT activity dependent chromatin transcription; assay: In vitro transcription from chromatin template; assay type: biochemical
# Method: In Vitro Chromatin Assembly: Chromatin template for in vitro transcription experiments was assembled and characterized as described earlier (9).
# as §1, with “C.” for “C. For loading control separate reaction was setup with ˜25 ng of supercoiled ML200 DNA, and the transcription assay was carried out as described above, without the addition of the activator (Gal4-VP16) and 2 μl of this reaction was added to each of the transcription reactions.”
# as §2
# [7] = target: T2, lysine methyltransferase G9a (Homo sapiens, UniProt Q96KQ7); assay: Histone methyltransferase assay with G9a; assay type: biochemical; conditions: 50 and 100 μM curcumin
# T2 construct: bacterially expressed HMTase domain of G9a fused to GST (31); GST; made in house
# T2 sequence (Q96KQ7 830-1209 limits assumed): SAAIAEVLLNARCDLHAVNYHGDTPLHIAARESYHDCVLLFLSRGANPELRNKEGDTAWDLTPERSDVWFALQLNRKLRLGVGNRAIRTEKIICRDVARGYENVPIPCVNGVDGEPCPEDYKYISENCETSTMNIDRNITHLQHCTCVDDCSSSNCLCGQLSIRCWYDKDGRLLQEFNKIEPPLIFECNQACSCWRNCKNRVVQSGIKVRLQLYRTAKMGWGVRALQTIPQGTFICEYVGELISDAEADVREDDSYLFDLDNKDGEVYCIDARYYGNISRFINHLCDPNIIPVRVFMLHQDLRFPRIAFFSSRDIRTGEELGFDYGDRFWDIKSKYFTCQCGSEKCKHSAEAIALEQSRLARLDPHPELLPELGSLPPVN
# Method: as §4, §5
# [8] = test system: acetylation of histones in HeLa cells; assay: In vivo histone acetylation in cells (AUT gel and western blotting); assay type: cell-based
# Method: Acid/Urea/Triton (A UT) polyacrylamide gel electrophoresis and Western Blotting for in vivo acetylated histones: HeLa cells (3×10^6 cells per 90 mm dish) were seeded overnight and histones were extracted from 24 hours of compound treated cells as reported earlier (29,32). Briefly, cells were harvested, washed in ice-cold buffer A (150 mM KCl, 20 mM HEPES, pH 7.9, 0.1 mM EDTA and 2.5 mM MgCl2) and lysed in buffer A containing 250 mM sucrose and 1% (v/v) Triton X 100. Nuclei were recovered by centrifugation, washed, and proteins were extracted for 1 h using 0.25 M HCl. The proteins were precipitated with 25% (w/v) trichloroacetic acid (TCA) and sequentially washed with ice-cold acidified acetone (20 μl of 12N HCl in 100 ml acetone), and acetone, air-dried and dissolved in the sample buffer (5.8 M urea, 0.9 M glacial acetic acid, 16% glycerol, and 4.8% 2-mercaptoethanol). The histones (equal amounts in all lanes) were resolved on AUT gel as described elsewhere (33,34).
# For western blotting, the quantitated protein samples were run on a 12% SDS-polyacrylamide gel and following electrophoresis, proteins on the gel were electrotransferred onto an immobilon membrane (PVDF; Millipore Corp., Bedford, Mass.). The membranes were then blocked in 5% skim milk powder solution in 1×PBS containing 0.05% Tween 20 and then immunoblotted with anti-acetyl H3 (Calbiochem), anti-acetyl H4 (a kind gift from Dr. Alaine Verrault) and anti-H3 respectively. Detection was performed using goat anti-rabbit secondary antibody (Bangalore Genei) and bands were visualized by ECL detection system (Pierce).
# (B) HeLa cells were treated as indicated, for 24 hours, histones were extracted and separated on an 18% acid/urea/triton (AUT) PAGE. The protein bands were visualized by Coomassie brilliant blue staining. […] Asterisk (*) indicates hyperacetylation of histones in response to HDAC inhibition by TSA and sodium butyrate. […] (C). The acid-extracted histones were resolved over 12% SDS-PAGE and were analyzed by western blot using antibodies against acetylated histone H3 and H4. Loading and transfer of equal amounts of protein were confirmed by immunodetection of histone H3. (D) 293 T cells were transiently transfected with CMV-p53 and CMV-p300 either alone or in combination as indicated. […] The p53 protein was immunoprecipitated from the cell lysates using p53 monoclonal antibody and acetylation status was analyzed by western blotting. Lanes 1 and 4, transfection with p53 alone; lanes 2 and 5, co-transfection with p53 and p300; lanes 3 and 6, transfection with p300 alone. (IP:Immunoprecipitation and IB: Immunoblotting).
# SupT1 cells = assay: Trypan blue exclusion analysis of viable cells; assay type: cell-based; conditions: 100 μM curcumin, 48 hrs
# From the text: Various experimental formats have been used to evaluate infection of target cells by HIV or inhibition of the viral infection in the presence of an anti-viral compound (44, 45). The standard format is to add titered viral stock to the target cells at a known multiplicity of infection (MOI) in the presence or absence of an anti-viral compound and monitor the synthesis of the viral structural protein p24 or the enzyme reverse transcriptase (46, 47). In the natural context, the viral transfer is more efficient through cell-to-cell contact rather than free virus infecting a target cell. Prevention of the viral transfer between cells is technically more difficult than neutralizing the free virus. SupT1 cells are highly […] for HIV-1 and these cells make numerous and large syncytia when infected with the virus. Taking advantage of this property, we co-cultured SupT1 cells in the presence of H9/HTLV-IIIb NIH 1983 cells that produce a T-cell tropic virus. […] To rule out the possibility of cytotoxicity and cell death, we determined the number of viable cells in all the wells using a trypan blue exclusion analysis.
# [9] = HeLa cells, TSA and sodium butyrate, with versus without curcumin (lane 5 versus 6)
# Chain of p300 (Q09472 whole entry, species assumed): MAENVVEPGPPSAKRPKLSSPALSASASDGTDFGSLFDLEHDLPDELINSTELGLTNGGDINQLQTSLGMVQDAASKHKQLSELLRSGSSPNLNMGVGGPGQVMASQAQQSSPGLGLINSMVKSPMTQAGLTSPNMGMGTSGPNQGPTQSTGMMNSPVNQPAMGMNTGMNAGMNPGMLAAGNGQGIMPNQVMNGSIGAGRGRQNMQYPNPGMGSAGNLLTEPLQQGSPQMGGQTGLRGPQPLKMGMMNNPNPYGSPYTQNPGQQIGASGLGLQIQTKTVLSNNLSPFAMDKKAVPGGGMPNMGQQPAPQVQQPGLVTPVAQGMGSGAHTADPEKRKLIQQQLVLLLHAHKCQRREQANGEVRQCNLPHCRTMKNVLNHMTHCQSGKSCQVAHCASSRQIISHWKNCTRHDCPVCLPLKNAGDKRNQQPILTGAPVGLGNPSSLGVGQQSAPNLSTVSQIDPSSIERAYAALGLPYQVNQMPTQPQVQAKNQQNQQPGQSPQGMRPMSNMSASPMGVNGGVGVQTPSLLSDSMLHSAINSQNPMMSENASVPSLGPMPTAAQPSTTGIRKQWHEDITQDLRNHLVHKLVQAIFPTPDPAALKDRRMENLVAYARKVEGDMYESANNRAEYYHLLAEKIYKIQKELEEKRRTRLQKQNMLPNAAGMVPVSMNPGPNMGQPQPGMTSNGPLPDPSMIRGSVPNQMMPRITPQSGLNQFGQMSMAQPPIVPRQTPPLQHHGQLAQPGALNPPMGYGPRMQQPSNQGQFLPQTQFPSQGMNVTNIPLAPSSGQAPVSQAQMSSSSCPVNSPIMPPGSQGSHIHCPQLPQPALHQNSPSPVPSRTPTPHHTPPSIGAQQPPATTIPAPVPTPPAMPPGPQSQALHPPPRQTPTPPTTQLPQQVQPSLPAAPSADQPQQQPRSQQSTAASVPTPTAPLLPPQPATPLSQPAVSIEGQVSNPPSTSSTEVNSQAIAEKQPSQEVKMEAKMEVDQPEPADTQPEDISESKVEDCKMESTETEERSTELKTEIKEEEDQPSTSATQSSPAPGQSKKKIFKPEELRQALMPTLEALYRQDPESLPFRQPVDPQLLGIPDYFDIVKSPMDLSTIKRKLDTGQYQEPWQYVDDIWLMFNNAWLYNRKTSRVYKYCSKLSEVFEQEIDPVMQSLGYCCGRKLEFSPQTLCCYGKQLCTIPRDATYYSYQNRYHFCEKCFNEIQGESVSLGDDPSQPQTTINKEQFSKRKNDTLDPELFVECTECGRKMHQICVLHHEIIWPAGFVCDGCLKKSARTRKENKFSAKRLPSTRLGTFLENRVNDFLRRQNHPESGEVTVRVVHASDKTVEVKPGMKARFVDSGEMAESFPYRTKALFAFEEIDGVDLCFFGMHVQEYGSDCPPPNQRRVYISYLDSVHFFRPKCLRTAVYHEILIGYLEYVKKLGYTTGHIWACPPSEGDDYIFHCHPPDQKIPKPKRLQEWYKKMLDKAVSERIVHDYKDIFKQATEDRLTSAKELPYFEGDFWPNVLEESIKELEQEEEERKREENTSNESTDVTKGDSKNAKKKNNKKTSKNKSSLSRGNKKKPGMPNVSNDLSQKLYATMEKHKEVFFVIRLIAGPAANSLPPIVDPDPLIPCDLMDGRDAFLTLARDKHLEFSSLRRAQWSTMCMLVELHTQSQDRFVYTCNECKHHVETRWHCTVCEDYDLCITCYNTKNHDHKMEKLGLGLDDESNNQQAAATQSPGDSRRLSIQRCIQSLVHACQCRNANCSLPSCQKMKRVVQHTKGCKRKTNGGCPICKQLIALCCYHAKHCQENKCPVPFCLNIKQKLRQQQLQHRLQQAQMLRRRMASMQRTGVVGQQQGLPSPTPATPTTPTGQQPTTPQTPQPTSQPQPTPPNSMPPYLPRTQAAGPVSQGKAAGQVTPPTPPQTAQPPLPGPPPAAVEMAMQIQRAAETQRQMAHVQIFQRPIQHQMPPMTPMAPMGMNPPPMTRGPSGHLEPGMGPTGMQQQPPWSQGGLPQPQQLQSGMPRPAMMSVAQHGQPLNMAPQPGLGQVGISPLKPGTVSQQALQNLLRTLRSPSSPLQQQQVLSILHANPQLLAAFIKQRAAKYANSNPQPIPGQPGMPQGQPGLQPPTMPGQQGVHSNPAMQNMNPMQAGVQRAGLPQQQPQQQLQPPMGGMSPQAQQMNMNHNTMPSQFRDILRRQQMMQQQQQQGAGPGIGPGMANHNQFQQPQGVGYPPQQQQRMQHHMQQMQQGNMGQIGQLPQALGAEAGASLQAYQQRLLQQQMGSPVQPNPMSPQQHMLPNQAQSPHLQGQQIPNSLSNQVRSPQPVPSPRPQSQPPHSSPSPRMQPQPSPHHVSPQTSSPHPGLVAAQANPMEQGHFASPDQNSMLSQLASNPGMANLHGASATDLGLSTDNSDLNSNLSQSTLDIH
# Chain of PCAF (Q92831 whole entry, species assumed): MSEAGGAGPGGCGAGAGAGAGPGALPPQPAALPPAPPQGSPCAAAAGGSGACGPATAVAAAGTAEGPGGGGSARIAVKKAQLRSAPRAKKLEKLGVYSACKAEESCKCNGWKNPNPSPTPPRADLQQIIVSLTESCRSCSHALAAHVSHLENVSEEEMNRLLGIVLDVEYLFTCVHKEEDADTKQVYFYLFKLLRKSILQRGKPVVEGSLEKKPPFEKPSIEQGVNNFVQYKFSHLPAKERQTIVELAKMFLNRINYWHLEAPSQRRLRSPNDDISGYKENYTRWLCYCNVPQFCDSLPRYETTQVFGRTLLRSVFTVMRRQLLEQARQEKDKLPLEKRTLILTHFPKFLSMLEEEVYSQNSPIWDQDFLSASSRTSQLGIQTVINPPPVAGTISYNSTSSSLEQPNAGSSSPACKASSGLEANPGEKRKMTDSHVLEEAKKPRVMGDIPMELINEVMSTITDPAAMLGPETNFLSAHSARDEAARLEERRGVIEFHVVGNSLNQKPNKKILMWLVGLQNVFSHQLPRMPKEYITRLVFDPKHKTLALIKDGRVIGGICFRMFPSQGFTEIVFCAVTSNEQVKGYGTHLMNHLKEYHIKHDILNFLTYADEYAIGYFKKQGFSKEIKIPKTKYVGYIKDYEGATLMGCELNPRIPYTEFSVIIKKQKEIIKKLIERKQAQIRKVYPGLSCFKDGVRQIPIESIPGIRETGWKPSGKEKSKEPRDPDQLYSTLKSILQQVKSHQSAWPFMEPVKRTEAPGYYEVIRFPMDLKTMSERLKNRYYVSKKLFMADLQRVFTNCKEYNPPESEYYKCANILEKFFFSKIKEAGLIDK
# T1 sequence (Q09472 whole entry, species assumed): as the sequence (Q09472 whole entry, species assumed) above
smiles,measurement,setting,value
COc1cc(/C=C/C(=O)CC(=O)/C=C/c2ccc(O)c(OC)c2)ccc1O [curcumin],number of syncytia,[1]; highest concentration of curcumin,no syncytia were seen
same,number of syncytia,[1]; increasing concentration of curcumin,dose-dependent reduction
same,Kcat of p300 HAT activity,p300,decreased
same,Km of p300 HAT activity,p300,decreased
same,Vmax of p300 HAT activity,p300,decreased
same,transcription from the DNA template,[2],not affected
same,apoptosis (nuclear fragmentation),HeLa cells,induces the apoptosis
same,acetylation of Tat by p300 in vitro,[3],strongly inhibits
same,methylation of core histones by HeLa nuclear extract (NE),[4],no difference
same,inhibition of CBP HAT activity,CBP,potent and specific inhibitor
same,PCAF HAT activity,PCAF,no change
same,p300-mediated acetylation of p53,"[5]; 293 T cells transfected with p53 and p300, 100 μM curcumin",completely inhibits
same,acetylation status of the endogenous p53,"[5]; 293 T cells transfected with p300 alone, 100 μM curcumin",not altered
same,repression of p300 HAT activity dependent chromatin transcription,[6]; 100 μM,≤ 3 fold
same,repression of p300 HAT activity dependent chromatin transcription,[6]; 300 μM,≤ 8 fold
same,histone methylation by G9a,[7],remains same
same,acetylation of histones (AUT gel),"[8]; HeLa cells hyperacetylated with TSA and sodium butyrate, 100 μM curcumin",inhibited
same,unacetylated form of histone H4 and H2B (AUT gel),"[8]; HeLa cells, 75 and 100 μM curcumin, 24 hours",modestly increased
same,inhibition of H3 acetylation (western blotting),[8]; [9],6 fold
same,inhibition of H4 acetylation (western blotting),[8]; [9],10 fold
same,"cytotoxicity (viable cells, trypan blue exclusion)",SupT1 cells,not cytotoxic
